# In patent US20240245673A1, “Papain-like protease (PLpro) inhibitors” (Pfizer Inc., priority 2022, published 2024):
# Biological target: SARS-CoV-2 Papain like protease (PLpro) (Severe acute respiratory syndrome coronavirus 2 (2019-nCoV) (SARS-CoV-2), UniProt P0DTD1)
# Test: Papain Like Protease (PLpro) biochemical assay with profluorogenic substrate Z-RLRGG-AMC
# Details: SARS-CoV-2 PLpro 6.25 nM, 25 μM Z-RLRGG-AMC substrate, 60 minute reaction; read-out: IC50
row,Compound,IC50
1,"Cc1cc(CN(Cc2cscn2)S(C)(=O)=O)ccc1C(=O)N[C@H](C)c1cc(-c2cnn(C)c2)nc2ccccc12 [Example 268, (R)-2-methyl-N-(1-(2-(1-methyl-1H-pyrazol-4-yl)quinolin-4-yl)ethyl)-4-((N-(thiazol-4-ylmethyl)methylsulfonamido)methyl)benzamide]",139 nM
2,"Cc1ccccc1C(=O)N[C@H](C)c1cc(OCC2COC2)nc2ccccc12 [Example 44, (R)-2-methyl-N-(1-(2-(oxetan-3-ylmethoxy)quinolin-4-yl)ethyl)benzamide]",3970 nM
3,"COC(=O)c1ccc(-c2cc(C(C)NC(=O)c3ccccc3C)c3ccccc3n2)o1 (centres unmarked) [Example 133, methyl 5-{4-[1-(2-methylbenzamido)ethyl]quinolin-2-yl}furan-2-carboxylate]",392 nM
4,"Cc1ccc(N2CCN(C)CC2)cc1C(=O)NC(C)c1cc(-c2cc(C(=O)N(C)C)c[nH]2)cc2ccccc12 (centres unmarked) [Example 229, N,N-dimethyl-5-(4-(1-(2-methyl-5-(4-methylpiperazin-1-yl)benzamido)ethyl)naphthalen-2-yl)-1H-pyrrole-3-carboxamide]",6 nM
5,Cc1ccc(N2CCNCC2=O)cc1C(=O)N[C@H](C)c1cc(-c2cnn(C)c2)nc2ccccc12 [Example 248],390 nM
6,"Cc1ccccc1C(=O)N[C@H](C)c1cc(Nc2ccn(C)n2)nc2ccccc12 [Example 38, (R)-2-methyl-N-(1-(2-((1-methyl-1H-pyrazol-3-yl)amino)quinolin-4-yl)ethyl)benzamide]",1630 nM
7,"Cc1ccccc1C(=O)NC(C)c1cc(-c2ccc3oc(=O)[nH]c3c2)nc2ccccc12 (centres unmarked) [Example 116, 2-methyl-N-{1-[2-(2-oxo-2,3-dihydro-1,3-benzoxazol-5-yl)quinolin-4-yl]ethyl} benzamide]",406 nM
8,"COC[C@@H](OCc1cocn1)c1ccc(C(=O)NC2(c3cc(-c4cnn(C)c4)nc4ccccc34)CC2)c(C)c1 (single isomer, unassigned) [Example 339]",< 1 nM
9,"Cc1cc(C(NCc2cscn2)C(F)(F)F)ccc1C(=O)N[C@H](C)c1cc(-c2cnn(C)c2)nc2ccccc12 (stereo partly drawn) [Example 310, 2-methyl-N-((R)-1-(2-(1-methyl-1H-pyrazol-4-yl)quinolin-4-yl)ethyl)-4-(2,2,2-trifluoro-1-((thiazol-4-ylmethyl)amino)ethyl)benzamide]",3 nM
10,"COC(=O)c1cc(-c2cc([C@@H](C)NC(=O)c3cc(CN)ccc3C)c3ccccc3n2)n(C)c1 [Example 263, methyl(R)-5-(4-(1-(5-(aminomethyl)-2-methylbenzamido)ethyl)quinolin-2-yl)-1-methyl-1H-pyrrole-3-carboxylate]",231 nM
11,"Cc1ccc(C(N)=O)cc1C(=O)NC(C)c1cc(-n2nccn2)cc2ccccc12 (centres unmarked) [Example 2, N^1-(1-(3-(2H-1,2,3-triazol-2-yl)naphthalen-1-yl)ethyl)-6-methylisophthalamide]",1370 nM
12,"Cc1cnc(N2CC3CCC2CN3)cc1C(=O)NC1(c2cc(-c3cnn(C)c3)nc3ccccc23)CC1 (centres unmarked) [Example 284, 2-(2,5-diazabicyclo[2.2.2]octan-2-yl)-5-methyl-N-(1-(2-(1-methyl-1H-pyrazol-4-yl)quinolin-4-yl)cyclopropyl)isonicotinamide]",6 nM
13,"Cc1ccc(N2CCN(C)CC2)cc1C(=O)NC(C)c1cc(-c2cnn(C)c2)cc2ccccc12 (centres unmarked) [Example 73, 2-methyl-N-(1-(3-(1-methyl-1H-pyrazol-4-yl)naphthalen-1-yl)ethyl)-5-(4-methylpiperazin-1-yl)benzamide]",22 nM
14,"Cc1ccc(NC(=O)[C@H]2CCCCN2)cc1C(=O)N[C@H](C)c1cc(-c2ccn[nH]2)cc2ccccc12 (single isomer, unassigned) [Example 68]",9 nM
15,Cc1ccc(N2CC3CNCC3C2)cc1C(=O)N[C@H](C)c1cc(-c2cnn(C)c2)nc2ccccc12 (some centres unmarked) [Example 261],21 nM
16,Cc1ccc(N2CC3CC2CN3)cc1C(=O)N[C@H](C)c1cc(-c2cnn(C)c2)nc2ccccc12 (some centres unmarked) [Example 255],19 nM
17,Cc1ccc(N2CCCC(N)C2=O)cc1C(=O)N[C@H](C)c1cc(-c2cnn(C)c2)nc2ccccc12 (some centres unmarked) [Example 235],91 nM
18,"Cc1cc(C(C)OCc2nccn2C)ncc1C(=O)N[C@H](C)c1cc(-c2cnn(C)c2)nc2ccccc12 (stereo partly drawn) [Example 322, 4-methyl-6-(1-((1-methyl-1H-imidazol-2-yl)methoxy)ethyl)-N-((R)-1-(2-(1-methyl-1H-pyrazol-4-yl)quinolin-4-yl)ethyl)nicotinamide]",7 nM
19,"Cc1ccc(CN)cc1C(=O)N[C@H](C)c1cc(-n2cnnc2)nc2ccccc12 [Example 16, (R)—N-(1-(2-(4H-1,2,4-triazol-4-yl)quinolin-4-yl)ethyl)-5-(aminomethyl)-2-methylbenzamide]",149 nM
20,"Cc1cc(COCc2cscn2)ccc1C(=O)NC1(c2cc(-c3cnn(CCS(C)(=O)=O)c3)nc3ccccc23)CC1 [Example 328, 2-methyl-N-(1-(2-(1-(2-(methylsulfonyl)ethyl)-1H-pyrazol-4-yl)quinolin-4-yl)cyclopropyl)-4-((thiazol-4-ylmethoxy)methyl)benzamide]",< 1 nM
21,"Cc1cc(C(=O)NCc2ncoc2C)ccc1C(=O)N[C@H](C)c1cc(-c2cnn(C)c2)nc2ccccc12 [Example 317, (R)-2-methyl-N1-(1-(2-(1-methyl-1H-pyrazol-4-yl)quinolin-4-yl)ethyl)-N4-((5-methyloxazol-4-yl)methyl)terephthalamide]",6 nM
22,"Cc1ccccc1C(=O)NC(C)c1cc(N(C)CCC(=O)N(C)C)nc2ccccc12 (centres unmarked) [Example 143, N-[1-(2-{[3-(dimethylamino)-3-oxopropyl](methyl)amino}-quinolin-4-yl)ethyl]-2-methylbenzamide]",8480 nM
23,"Cc1ccccc1C(=O)NC(C)c1cc(NC2CCOC2)nc2ccccc12 (centres unmarked) [Example 142, 2-methyl-N-(1-{2-[(oxolan-3-yl)amino]quinolin-4-yl}ethyl)benzamide]",900 nM
24,"Cc1ccccc1C(=O)N[C@H](C)c1cc(OCCO)nc2ccccc12 [Example 45, (R)-N-(1-(2-(2-hydroxyethoxy)quinolin-4-yl)ethyl)-2-methylbenzamide]",3480 nM
25,"CNC(=O)c1cc(-c2cc(C3(NC(=O)c4ccc(COCc5cscn5)cc4C)CC3)c3ccccc3n2)[nH]n1 [Example 347, N-methyl-5-(4-(1-(2-methyl-4-((thiazol-4-ylmethoxy)methyl)benzamido)cyclopropyl)quinolin-2-yl)-1H-pyrazole-3-carboxamide]",< 1 nM
26,Cc1cc(C(=O)NCc2nccn2C)ccc1C(=O)N[C@H](C)c1cc(-c2cnn(C)c2)nc2ccccc12 [Example 271],5 nM
27,"Cc1ccccc1C(=O)N[C@H](C)c1cc(-c2ccn(C)n2)nc2ccccc12 [Example 12, (R)-2-methyl-N-(1-(2-(1-methyl-1H-pyrazol-3-yl)quinolin-4-yl)ethyl)benzamide]",532 nM
28,"Cc1ccccc1C(=O)NC(C)c1cc(-c2cnn(CCN3CCOCC3)c2)nc2ccccc12 (centres unmarked) [Example 125, 2-methyl-N-[1-(2-{1-[2-(morpholin-4-yl)ethyl]-1H-pyrazol-4-yl}quinolin-4-yl)ethyl]benzamide]",294 nM
29,"Cc1cc(CC(=O)O)ccc1C(=O)N[C@H](C)c1cc(-c2cnn(C)c2)nc2ccccc12 [Example 200, (R)-2-(3-methyl-4-((1-(2-(1-methyl-1H-pyrazol-4-yl)quinolin-4-yl)ethyl)carbamoyl)phenyl)acetic acid]",792 nM
